Laboratory results published in paper PMC4890880 (ACS infectious diseases, 2016).
Like-named read-outs stand apart in the source and are kept apart here.

Columns and labels:
[1] = test system: P. falciparum 3D7 parasites; test: Asexual erythrocytic-stage SYBR Green I proliferation assay, 1536-well; format: cell-based, Plasmodium falciparum; details: Plasmodium falciparum
[2] = test system: Plasmodium berghei (Pb-Luc) exoerythrocytic-stage parasites; test: microbe, parasite or virus in culture; details: for inhibition at 10 µM: read-out: PbLuc max inhibition (%) @ 10 uM
[3] = test system: Pb-Luc exoerythrocytic-stage parasites in Huh7.5.1 cells; test: Pb-Luc time of action assay (modified 384-well luciferase assay); details: Plasmodium berghei
[4] = test system: Plasmodium berghei (Pb-Luc) exoerythrocytic-stage parasites
HepG2-A16-CD81EGFP cells [5] = test system: HepG2-A16-CD81EGFP cells
Plasmodium DHODH enzyme = biological target: T1, Plasmodium DHODH enzyme (Plasmodium falciparum, UniProt Q08210); test: DHODH assay; details: data not shown
T1 sequence (Q08210 24-569): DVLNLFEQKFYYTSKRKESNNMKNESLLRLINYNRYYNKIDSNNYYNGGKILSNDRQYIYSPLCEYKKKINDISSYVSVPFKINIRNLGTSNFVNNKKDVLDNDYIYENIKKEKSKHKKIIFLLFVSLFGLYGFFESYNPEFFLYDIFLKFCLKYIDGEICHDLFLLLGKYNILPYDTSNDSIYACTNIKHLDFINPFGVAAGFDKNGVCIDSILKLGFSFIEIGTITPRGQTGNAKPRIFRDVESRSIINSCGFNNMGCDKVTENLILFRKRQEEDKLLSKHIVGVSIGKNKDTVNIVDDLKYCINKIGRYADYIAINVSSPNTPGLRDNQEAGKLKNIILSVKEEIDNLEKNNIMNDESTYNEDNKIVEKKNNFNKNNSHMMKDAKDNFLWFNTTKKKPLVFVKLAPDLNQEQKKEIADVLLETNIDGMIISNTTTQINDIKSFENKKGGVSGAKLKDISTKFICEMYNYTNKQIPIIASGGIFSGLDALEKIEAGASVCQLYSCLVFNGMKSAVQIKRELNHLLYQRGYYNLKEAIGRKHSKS

[6] = test system: P. falciparum Dd2 erythrocytic stage; test: Dd2 erythrocytic-stage assay (SYBR Green) for DOS compounds; details: for IC50: read-out: Erythrocytic-stage (Pf Dd2) IC50, Figure 4b
HepG2-A16-CD81EGFP cells [7] = test: cells; details: Homo sapiens; for IC50: HepG2, read-out: Tox IC50; for inhibition at 10 µM: HepG2, read-out: Tox max inhibition (%) @ 10 uM
[8] = test system: Plasmodium cynomolgi exoerythrocytic-stage small (hypnozoites) and large (liver stage schizonts) parasites; test: P. cynomolgi liver assay in primary hepatocytes; details: for inhibition at 0.1 µM / inhibition at 1 µM / inhibition at 10 µM: Plasmodium cynomolgi, Hepatocyte
[9] = biological target: QuantiLum Recombinant Luciferase (Photinus pyralis, UniProt P08659); test: Bioluminescence quantification of compound luciferase inhibition; details: for Emax: read-out: LucInhib max inhibition
[10] = only compound of the set tested with exposure; cited from earlier work
[11] = test system: P. berghei expressing GFP (Pb-GFP) in Huh7.5.1 cells; test: Flow cytometry assay of traversal, invasion, EEF frequency and EEF development; format: cell-based, Plasmodium berghei; details: 2 hours post infection; 1 μM
Huh7.5.1 cells = test: Cytotoxicity in Huh7.5.1 cells (Figure S4); details: at 10 μM
[12] = 3D7, read-out: P. falciparum (blood) IC50, Table S1, validation set of 50 antimalarials
[13] = read-out: P. berghei (liver) IC50, Table S1, validation set of 50 antimalarials, Pb-Luc
[14] = Huh-7.5.1, read-out: Pb-Luc IC50, Treatment: 1
[15] = Huh-7.5.1, read-out: Pb-Luc IC50, Treatment: 2
[16] = Huh-7.5.1, read-out: Pb-Luc IC50, Treatment: 3
[17] = Huh-7.5.1, read-out: Pb-Luc IC50, Treatment: 4
[18] = Huh-7.5.1, read-out: Pb-Luc IC50, Treatment: 5
[19] = Huh-7.5.1, read-out: Pb-Luc IC50, Treatment: 6
[20] = read-out: Exoerythrocytic-stage Pb-Luc IC50, Figure 4b, first assay
[21] = read-out: Exoerythrocytic-stage Pb-Luc IC50, Figure 4b, second assay (value in parentheses)
[22] = HepG2, read-out: HepG2 Tox% @ 50 uM rep1
[23] = HepG2, read-out: HepG2 Tox% @ 50 uM rep2
[24] = read-out: Inhibition% @ 50 uM rep1
[25] = read-out: Inhibition% @ 50 uM rep2
[26] = read-out: PbLuc IC50, dose response, 1/3 dilutions, max conc. 10 or 50 uM, unit inferred
[27] = read-out: % inhibition normalized to untreated control, Large
[28] = read-out: % inhibition normalized to untreated control, Small

Sequence of QuantiLum Recombinant Luciferase (P08659 whole entry): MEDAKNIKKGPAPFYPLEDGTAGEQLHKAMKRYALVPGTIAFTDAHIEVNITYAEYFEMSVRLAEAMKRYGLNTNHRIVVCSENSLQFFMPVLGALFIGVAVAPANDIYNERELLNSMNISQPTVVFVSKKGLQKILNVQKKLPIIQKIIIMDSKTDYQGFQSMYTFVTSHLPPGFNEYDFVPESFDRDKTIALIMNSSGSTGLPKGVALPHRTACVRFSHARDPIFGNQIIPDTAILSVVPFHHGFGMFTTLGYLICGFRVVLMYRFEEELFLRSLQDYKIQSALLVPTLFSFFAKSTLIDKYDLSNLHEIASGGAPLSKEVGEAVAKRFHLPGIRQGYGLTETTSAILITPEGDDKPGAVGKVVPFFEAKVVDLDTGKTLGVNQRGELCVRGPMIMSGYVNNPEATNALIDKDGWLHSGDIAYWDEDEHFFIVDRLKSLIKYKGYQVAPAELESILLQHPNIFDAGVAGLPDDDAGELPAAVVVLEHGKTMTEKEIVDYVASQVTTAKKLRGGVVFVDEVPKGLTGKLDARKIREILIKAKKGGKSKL

Structure (SMILES)	IC50 [3, 14]	IC50 [3, 15]	IC50 [3, 16]	IC50 [3, 17]	IC50 [3, 18]	IC50 [3, 19]	IC50 [4, 20]	IC50 [4, 21]	IC50 [6]	cytotoxicity at 50 µM (HepG2-A16-CD81EGFP cells [7]; [22])	IC50 (HepG2-A16-CD81EGFP cells [7])	inhibition at 50 µM [2, 24]	inhibition at 50 µM [2, 25]	IC50 [2, 26]	inhibition at 0.1 µM [8, 27]	inhibition at 1 µM [8, 27]	inhibition at 10 µM [8, 27]	inhibition at 0.1 µM [8, 28]	inhibition at 1 µM [8, 28]	inhibition at 10 µM [8, 28]	further results
O=C1C(O)=C([C@H]2CC[C@H](c3ccc(Cl)cc3)CC2)C(=O)c2ccccc21 [Atovaquone, reference compound]	34 nM	2.8 nM	7.9 nM	1.6 nM	1.1 nM	0.9 nM	–	–	–	–	–	–	–	–	–	–	–	–	–	–	IC50 [1, 12]: < 0.4 nM; IC50 [2, 13]: 0.25 nM
CS(=O)(=O)N1[C@H](C#N)[C@H](c2ccc(C#Cc3cccc(F)c3)cc2)[C@H]1CO [BRD0326]	–	–	–	–	–	–	300 nM	150 nM	> 10000 nM	–	–	–	–	–	–	–	–	–	–	–	IC50 ([4]; read-out: Pb-Luc IC50, Figure 4a, stereoisomers tested in dose response): 152 nM; IC50 ([4]; read-out: Pb-Luc IC50, Figure 4a, stereoisomers tested in dose response, listed as BRD0326 SSS): < 1000 nM; CC50 (HepG2-A16-CD81EGFP cells [5]): > 10000 nM; activity in a DHODH assay (Plasmodium DHODH enzyme): inactive; erythrocytic-stage activity ([6]; in words): no erythrocytic-stage activity
CCCNC(=O)N1[C@H](C#N)[C@H](c2ccc(C#Cc3cccc(F)c3)cc2)[C@H]1CO [BRD7539]	–	–	–	–	–	–	–	2 nM	10 nM	–	–	–	–	–	–	–	–	–	–	–	IC50 ([4]; read-out: Pb-Luc IC50, Figure 4a, stereoisomers tested in dose response, listed as BRD9781/7539 series SSS): 2 nM
CCCNC(=O)N1[C@H](CO)[C@H](c2ccc(C#Cc3cccc(F)c3)cc2)[C@@H]1C#N [BRD9781]	–	–	–	–	–	–	80 nM	40 nM	8550 nM	–	–	–	–	–	–	–	–	–	–	–	IC50 ([4]; read-out: Pb-Luc IC50, Figure 4a, stereoisomers tested in dose response, listed as BRD9781/7539 series SRR): 39 nM; activity in a DHODH assay (Plasmodium DHODH enzyme): inactive
O=C(Nc1cccc(F)c1)N1CCCCN2[C@H](CO)[C@@H](c3ccc(C#Cc4cccnc4)cc3)[C@@H]2C1 [BRD47390]	–	–	–	–	–	–	360 nM	230 nM	2580 nM	–	–	–	–	–	–	–	–	–	–	–	CC50 (HepG2-A16-CD81EGFP cells [5]): > 10000 nM
Cc1ccc(N2C3c4ccccc4N(S(=O)(=O)c4ccc(C)cc4)C2c2ccccc2N3S(=O)(=O)c2ccc(C)cc2)cc1 [MMV007160]	792 nM	285 nM	2880 nM	177 nM	198 nM	179 nM	–	–	–	-4.53%	> 10000 nM	103%	105%	36.7 nM	17%	14%	0%	17%	-25%	-11%	cytotoxicity at 50 µM (HepG2-A16-CD81EGFP cells [7]; [23]): -10%; inhibition at 10 µM (HepG2-A16-CD81EGFP cells [7]): 10%; inhibition at 10 µM [2]: 110%; IC50 [9]: > 20000 nM; Emax [9]: 14%
Brc1ccc(Nc2nc3ccccc3nc2Nc2ccc(Br)cc2)cc1 [MMV007224]	–	–	–	–	–	–	–	–	–	100%	1940 nM	103%	103%	170 nM	23%	43%	96%	30%	20%	67%	inhibition at 50 µM (HepG2-A16-CD81EGFP cells [7]; HepG2, read-out: Tox max inhibition (%) @ 50 uM): 99%; pharmacokinetic exposure in vivo [10]: any pharmacokinetic exposure in vivo; inhibition at 50 µM ([2]; read-out: PbLuc max inhibition (%) @ 50 uM): 101%; activity against small or large forms ([8]; at 10 μM, in words): moderate activity
COc1ccccc1CNC(=O)CCn1c(=O)[nH]c2ccccc2c1=O [MMV665916]	5730 nM	5780 nM	8160 nM	4290 nM	786 nM	370 nM	–	–	–	-21%	> 10000 nM	99%	99%	44.3 nM	6%	2%	-13%	20%	-13%	-15%	cytotoxicity at 50 µM (HepG2-A16-CD81EGFP cells [7]; [23]): -23%; inhibition at 10 µM (HepG2-A16-CD81EGFP cells [7]): -2.14%; inhibition at 10 µM [2]: 100%; IC50 [9]: > 20000 nM; Emax [9]: 15%
COc1cccc(C=Cc2nc(=O)c3ccccc3o2)c1OC [MMV666693]	172 nM	20 nM	297 nM	15 nM	16 nM	12 nM	–	–	–	-0.938%	> 10000 nM	102%	103%	9.82 nM	22%	-3%	15%	29%	16%	30%	IC50 ([1]; 3D7, read-out: erythrocytic-stage P. falciparum IC50, values reported in Table S1, Additional File 1): < 100 nM; effect on sporozoite invasion [11]: not affected; effect on sporozoite traversal of hepatocytes [11]: slight effect; cytotoxicity at 50 µM (HepG2-A16-CD81EGFP cells [7]; [23]): 7%; inhibition at 10 µM (HepG2-A16-CD81EGFP cells [7]): 123%; inhibition at 10 µM [2]: 108%; cytotoxicity in Huh7.5.1 cells (Huh7.5.1 cells): slight cytotoxicity; IC50 [9]: 5330 nM; Emax [9]: 89%
CCc1nc(N)nc(N)c1-c1ccc(Cl)cc1 [Pyrimethamine, reference compound]	122 nM	21 nM	252 nM	19.7 nM	18.8 nM	18.9 nM	–	–	–	–	–	–	–	–	–	–	–	–	–	–	IC50 [1, 12]: 19.9 nM; IC50 [2, 13]: 5.1 nM
